According to patent US20260240879A1, “TOPICAL PALA THERAPY FOR CANCER” (priority 2023, published 2026):
Entries after “also recorded” stand apart in the source; their conditions may differ.

What was measured:
[1] = system: cytokines and chemokines in treated skin; experiment: Cytokine/chemokine profile of treated skin lysates (U-PLEX); details: for expression of inflammatory cytokine/chemokine panel in treated skin (in words): daily topical 2% PALA, 5% IMQ or 5% 5-FU, 7 days, vs vehicle; for IL-17C, Mean (SEM) / IL-17A, Mean (SEM) / GM-CSF, Mean (SEM) / IL-6, Mean (SEM) / KC, Mean (SEM) / RANTES, Mean (SEM): treated skin lysate, day 7, 2% PALA, 5% IMQ, 5% 5-FU, n = 5/group; for IL-17C, Mean (SEM): vehicle 0.5 (0.03); for IL-17A, Mean (SEM): vehicle 0.6 (0.1); for GM-CSF, Mean (SEM): vehicle 0.8 (0.1); for IL-6, Mean (SEM): vehicle 25.4 (3.2); for KC, Mean (SEM): vehicle 26.3 (6.4); for RANTES, Mean (SEM): vehicle 43.7 (3.2)
Protocol: The topical formulations of 2% PALA/50% acetone/10% glycerol, 5% imiquimod (IMQ), 5% 5-FU (5-FU), vehicle (50% acetone/10% glycerol) control, and Aquaphor were applied (~0.05 g/mouse) daily to the dorsal skin of SKH1-Elite female mice (8 weeks of age; n=5/group) for 7 days. […] Mice were monitored daily for weight change, skin appearance, and signs of distress.
Skin protein lysates were made by homogenizing frozen tissue with a pestle and scissors in RIPA buffer (50 mM Tris, pH8, 150 mM NaCl, 0.5% sodium deoxycholate, 1% NP-40, 0.1% sodium dodecyl sulfate, lx Pierce protease inhibitor cocktail (A32965, ThermoFisher)). Cytokines and chemokines were quantified from 25 μg of lysate using a custom 10-plex U-PLEX panel (K15069L-2; Meso Scale Discovery) that included: GM-CSF, KC/CXCL1, IFNα, IFNβ, IFNγ, IL-10, IL-6, IL-12p70, IL-17A, IL-17C, IL-17F, IP-10/CXCL10, MCP-1/CCL2, RANTES/CCL5, and TNFα. The MESO SECTOR S 600 plate reader (ICOAA-0; Meso Scale Discovery) was used to collect the U-Plex data and data was analyzed using MSD Discovery Workbench 4.0 software.

[2] = Toxicity markers in UVB-tumor-bearing mice under topical treatment (weight, SAA, colon length, fecal LCN2); details: 5% (w/w) 5-fluorouracil, daily topical
Protocol: Serum amyloid A levels were measured in plasma samples using the Mouse SAA ELISA kit (E-90SAA, Immunology Consultants Laboratory, Inc.) according to manufacturer's instructions. Lipocalin-2 (LCN2) was quantified from pre-weighed stool samples homogenized in 0.5 mL PBS using the Mouse Lipocalin-2/NGAL DuoSet ELISA (DY1857) and DuoSet Ancillary Reagent Kit 2 (DY008, R&D Systems).

[3] = Skin irritation testing, daily topical application for 7 days; details: for skin histology on day 7 / spleen weight on day 7 / skin irritation apparent: daily topical 2% PALA, 5% IMQ or 5% 5-FU; for skin irritation apparent / weight change: naive mice; for weight change: daily topical 5% IMQ or 5% 5-FU, in contrast to vehicle and 2% PALA
Protocol: The topical formulations of 2% PALA/50% acetone/10% glycerol, 5% imiquimod (IMQ), 5% 5-FU (5-FU), vehicle (50% acetone/10% glycerol) control, and Aquaphor were applied (~0.05 g/mouse) daily to the dorsal skin of SKH1-Elite female mice (8 weeks of age; n=5/group) for 7 days. […] Mice were monitored daily for weight change, skin appearance, and signs of distress. […] At harvest, spleen weights and colon lengths were measured.

[4] = system: UVB-induced NMSC (AK lesions and SCC tumors); experiment: UVB-induced NMSC mouse model: tumor number, area, growth phenotype and grade; details: 2% PALA or 5% IMQ, daily, 4 weeks

SMILES	expression of inflammatory cytokine/chemokine panel in treated skin (in words) [1]	IL-17C, Mean (SEM) [1]	IL-17A, Mean (SEM) [1]	GM-CSF, Mean (SEM) [1]	IL-6, Mean (SEM) [1]	KC, Mean (SEM) [1]	RANTES, Mean (SEM) [1]	early termination of animals at the request of veterinary staff [2]	skin histology on day 7 [3]	spleen weight on day 7 [3]	skin irritation apparent [3] [days]	weight change [3]	tumor levels of interleukin-1β [4]
O=c1[nH]cc(F)c(=O)[nH]1 [Formulation 5-FU, fluorouracil]	increased expression of IL-6, IL-17C, KC, and GM-CSF	1.4 (0.1)	1.2 (0.4)	2.6 (0.2)	268.8 (104.8)	114.5 (16.4)	17.7 (5.0)	terminated after 2.5 weeks of treatment	epithelial erosion	significant decreases in spleen weight	5	significant weight loss	–
CC(C)Cn1cnc2c(N)nc3ccccc3c21 [IMQ, imiquimod]	upregulation of IL-17 family cytokines; also recorded: cutaneous levels of RANTES and GM-CSF were elevated	1.0 (0.04)	1.6 (0.1)	2.5 (0.7)	61.3 (10.0)	28.6 (5.9)	141.0 (36.1)	–	overt thickening of the epidermis	splenomegaly	2	significant weight loss	elevated
